Here are results for eleven molecules from patent publication US12049450B2, “Pyridyloxy-carboxylate derivative and preparation method therefor, herbicidal composition, and use” (Qingdao Kingagroot Chemical Compound Co., Ltd., priority 2018, dated 2024).

Holding throughout (test): Post-emergence test experiment (greenhouse pot, spray at 2-3 leaf stage)
Assay type in all cases: in vivo
Common to all, as to conditions: 1000 g/ha; post-emergence spray at 2-3 leaf stage; assessed after 3 weeks; fresh weight inhibition rate

For one assay, the system named is Abutilon theophrasti. A digest of the protocol:
(§1)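 Activity graded levels 0-5 by fresh-weight inhibition (level 5 above 85%, level 0 below 5%), assessed 3 weeks after treatment. Plants grown in greenhouse pots were sprayed post-emergence at 2-3 leaves using acetone/tween-80 solutions with methyl oleate synergist (1.5 L/ha).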

The test system of the next assay is Digitaria sanguinalis. A digest of the protocol: as §1
A further assay deals with Echinochloa crusgalli. The essentials:
as §1

The subject of the next assay is Galium spurium. A digest of the protocol: as §1
The next assay relates to Monochoria vaginalis. The essentials:
as §1

On to `CC(Oc1nc(F)c(Cl)c(N)c1Cl)C(=O)SCCc1ccc2ccsc2c1` (stereo not shown) [Compound 179], for which, in the assay with Abutilon theophrasti, the “Activity level (growth inhibition rate) Abutilon theophrasti” value is listed as 5 (Level 5: the growth inhibition rate is greater than 85%). For the same molecule, the “Activity level (growth inhibition rate) Digitaria sanguinalis” value in the assay with Digitaria sanguinalis is 5 (Level 5: the growth inhibition rate is greater than 85%). The “Activity level (growth inhibition rate) Echinochloa crusgalli” value in the assay on Echinochloa crusgalli is given as 5 (Level 5: the growth inhibition rate is greater than 85%). Further, the “Activity level (growth inhibition rate) Galium spurium” value with Galium spurium is recorded as 5 (Level 5: the growth inhibition rate is greater than 85%). In addition, the “Activity level (growth inhibition rate) Monochoria Vaginalis” value with Monochoria vaginalis is 5 (Level 5: the growth inhibition rate is greater than 85%).
`CC(Oc1nc(F)c(Cl)c(N)c1Cl)C(=O)OCc1ccc2ncsc2c1` (stereo not shown) [Compound 180]: the “Activity level (growth inhibition rate) Abutilon theophrasti” value with Abutilon theophrasti is 5 (Level 5: the growth inhibition rate is greater than 85%). Besides, the “Activity level (growth inhibition rate) Digitaria sanguinalis” value in the assay on Digitaria sanguinalis is on record as 5 (Level 5: the growth inhibition rate is greater than 85%). Besides, the “Activity level (growth inhibition rate) Echinochloa crusgalli” value in the assay with Echinochloa crusgalli was 5 (Level 5: the growth inhibition rate is greater than 85%). In the assay with Galium spurium, the “Activity level (growth inhibition rate) Galium spurium” value is 5 (Level 5: the growth inhibition rate is greater than 85%). For the same molecule, the “Activity level (growth inhibition rate) Monochoria Vaginalis” value in the assay with Monochoria vaginalis was 5 (Level 5: the growth inhibition rate is greater than 85%).
For `CC(Oc1nc(F)c(Cl)c(N)c1Cl)C(=O)OCc1ccc2ccccc2c1` (stereo not shown) [Compound 181], in the assay on Abutilon theophrasti, the “Activity level (growth inhibition rate) Abutilon theophrasti” value is 5 (Level 5: the growth inhibition rate is greater than 85%). Also, the “Activity level (growth inhibition rate) Digitaria sanguinalis” value in the assay with Digitaria sanguinalis is recorded as 5 (Level 5: the growth inhibition rate is greater than 85%). The “Activity level (growth inhibition rate) Echinochloa crusgalli” value in the assay on Echinochloa crusgalli is given as 5 (Level 5: the growth inhibition rate is greater than 85%). The “Activity level (growth inhibition rate) Galium spurium” value in the assay on Galium spurium is given as 5 (Level 5: the growth inhibition rate is greater than 85%). Besides, in the assay on Monochoria vaginalis, the “Activity level (growth inhibition rate) Monochoria Vaginalis” value is reported as 5 (Level 5: the growth inhibition rate is greater than 85%).
On to `CC(Oc1nc(F)c(Cl)c(N)c1Cl)C(=O)SCc1ccc2cc(Cl)ccc2c1` (stereo not shown) [Compound 182], for which, in the assay with Abutilon theophrasti, the “Activity level (growth inhibition rate) Abutilon theophrasti” value is given as 5 (Level 5: the growth inhibition rate is greater than 85%). Also, the “Activity level (growth inhibition rate) Digitaria sanguinalis” value in the assay with Digitaria sanguinalis is 5 (Level 5: the growth inhibition rate is greater than 85%). In addition, the “Activity level (growth inhibition rate) Echinochloa crusgalli” value with Echinochloa crusgalli was 5 (Level 5: the growth inhibition rate is greater than 85%). Besides, the “Activity level (growth inhibition rate) Galium spurium” value in the assay on Galium spurium is reported as 5 (Level 5: the growth inhibition rate is greater than 85%). The “Activity level (growth inhibition rate) Monochoria Vaginalis” value in the assay with Monochoria vaginalis is recorded as 5 (Level 5: the growth inhibition rate is greater than 85%).
As for `COc1ccc2ccc(COC(=O)C(C)Oc3nc(F)c(Cl)c(N)c3Cl)cc2c1` (stereo not shown) [Compound 183], the “Activity level (growth inhibition rate) Abutilon theophrasti” value with Abutilon theophrasti is on record as 5 (Level 5: the growth inhibition rate is greater than 85%). Besides, the “Activity level (growth inhibition rate) Digitaria sanguinalis” value in the assay on Digitaria sanguinalis is recorded as 5 (Level 5: the growth inhibition rate is greater than 85%). The “Activity level (growth inhibition rate) Echinochloa crusgalli” value in the assay with Echinochloa crusgalli is 5 (Level 5: the growth inhibition rate is greater than 85%). In addition, the “Activity level (growth inhibition rate) Galium spurium” value in the assay on Galium spurium is recorded as 5 (Level 5: the growth inhibition rate is greater than 85%). For the same molecule, the “Activity level (growth inhibition rate) Monochoria Vaginalis” value in the assay on Monochoria vaginalis was 5 (Level 5: the growth inhibition rate is greater than 85%).
Consider `CC(Oc1nc(F)c(Cl)c(N)c1Cl)C(=O)OCc1ccc2cnccc2c1` (stereo not shown) [Compound 184], for which, in the assay on Abutilon theophrasti, the “Activity level (growth inhibition rate) Abutilon theophrasti” value was 5 (Level 5: the growth inhibition rate is greater than 85%). For the same molecule, the “Activity level (growth inhibition rate) Digitaria sanguinalis” value in the assay with Digitaria sanguinalis is 5 (Level 5: the growth inhibition rate is greater than 85%). In addition, in the assay with Echinochloa crusgalli, the “Activity level (growth inhibition rate) Echinochloa crusgalli” value is 5 (Level 5: the growth inhibition rate is greater than 85%). For the same molecule, the “Activity level (growth inhibition rate) Galium spurium” value in the assay with Galium spurium is reported as 5 (Level 5: the growth inhibition rate is greater than 85%). In the assay on Monochoria vaginalis, the “Activity level (growth inhibition rate) Monochoria Vaginalis” value is listed as 5 (Level 5: the growth inhibition rate is greater than 85%).
Turning to `CC(Oc1nc(F)c(Cl)c(N)c1Cl)C(=O)OCc1ccc2nccnc2c1` (stereo not shown) [Compound 186], the “Activity level (growth inhibition rate) Abutilon theophrasti” value with Abutilon theophrasti is reported as 5 (Level 5: the growth inhibition rate is greater than 85%). In the assay with Digitaria sanguinalis, the “Activity level (growth inhibition rate) Digitaria sanguinalis” value was 5 (Level 5: the growth inhibition rate is greater than 85%). For the same molecule, in the assay with Echinochloa crusgalli, the “Activity level (growth inhibition rate) Echinochloa crusgalli” value is on record as 5 (Level 5: the growth inhibition rate is greater than 85%). Also, the “Activity level (growth inhibition rate) Galium spurium” value with Galium spurium is 5 (Level 5: the growth inhibition rate is greater than 85%). Also, the “Activity level (growth inhibition rate) Monochoria Vaginalis” value with Monochoria vaginalis was 5 (Level 5: the growth inhibition rate is greater than 85%).
Take `CC(Oc1nc(F)c(Cl)c(N)c1Cl)C(=O)OCCc1cccc2cnncc12` (stereo not shown) [Compound 187]: the “Activity level (growth inhibition rate) Abutilon theophrasti” value in the assay with Abutilon theophrasti was 5 (Level 5: the growth inhibition rate is greater than 85%). Moreover, the “Activity level (growth inhibition rate) Digitaria sanguinalis” value in the assay on Digitaria sanguinalis is reported as 5 (Level 5: the growth inhibition rate is greater than 85%). For the same molecule, the “Activity level (growth inhibition rate) Echinochloa crusgalli” value with Echinochloa crusgalli is 5 (Level 5: the growth inhibition rate is greater than 85%). For the same molecule, in the assay on Galium spurium, the “Activity level (growth inhibition rate) Galium spurium” value is listed as 5 (Level 5: the growth inhibition rate is greater than 85%). For the same molecule, in the assay with Monochoria vaginalis, the “Activity level (growth inhibition rate) Monochoria Vaginalis” value was 5 (Level 5: the growth inhibition rate is greater than 85%).
Take `CC(Oc1nc(F)c(Cl)c(N)c1Cl)C(=O)SCc1ccc2nnccc2c1` (stereo not shown) [Compound 188]: the “Activity level (growth inhibition rate) Abutilon theophrasti” value in the assay with Abutilon theophrasti is 5 (Level 5: the growth inhibition rate is greater than 85%). Further, in the assay with Digitaria sanguinalis, the “Activity level (growth inhibition rate) Digitaria sanguinalis” value is 5 (Level 5: the growth inhibition rate is greater than 85%). Moreover, the “Activity level (growth inhibition rate) Echinochloa crusgalli” value with Echinochloa crusgalli is recorded as 5 (Level 5: the growth inhibition rate is greater than 85%). In addition, the “Activity level (growth inhibition rate) Galium spurium” value with Galium spurium was 5 (Level 5: the growth inhibition rate is greater than 85%). Besides, the “Activity level (growth inhibition rate) Monochoria Vaginalis” value in the assay with Monochoria vaginalis was 5 (Level 5: the growth inhibition rate is greater than 85%).
Turning to `CC(Oc1nc(F)c(Cl)c(N)c1Cl)C(=O)OCc1ccc2c(c1)OCCO2` (stereo not shown) [Compound 189], the “Activity level (growth inhibition rate) Abutilon theophrasti” value with Abutilon theophrasti is recorded as 5 (Level 5: the growth inhibition rate is greater than 85%). Also, in the assay with Digitaria sanguinalis, the “Activity level (growth inhibition rate) Digitaria sanguinalis” value is recorded as 5 (Level 5: the growth inhibition rate is greater than 85%). The “Activity level (growth inhibition rate) Echinochloa crusgalli” value in the assay on Echinochloa crusgalli is 5 (Level 5: the growth inhibition rate is greater than 85%). Also, in the assay with Galium spurium, the “Activity level (growth inhibition rate) Galium spurium” value is listed as 5 (Level 5: the growth inhibition rate is greater than 85%). Further, the “Activity level (growth inhibition rate) Monochoria Vaginalis” value in the assay on Monochoria vaginalis is given as 5 (Level 5: the growth inhibition rate is greater than 85%).
For the molecule `CNc1c(Cl)c(F)nc(OC(C)C(=O)OCc2ccccc2)c1Cl` (stereo not shown) [Compound 190], the “Activity level (growth inhibition rate) Abutilon theophrasti” value with Abutilon theophrasti is 5 (Level 5: the growth inhibition rate is greater than 85%). In the assay with Digitaria sanguinalis, the “Activity level (growth inhibition rate) Digitaria sanguinalis” value was 5 (Level 5: the growth inhibition rate is greater than 85%). Moreover, in the assay with Echinochloa crusgalli, the “Activity level (growth inhibition rate) Echinochloa crusgalli” value was 5 (Level 5: the growth inhibition rate is greater than 85%). The “Activity level (growth inhibition rate) Galium spurium” value in the assay with Galium spurium is listed as 5 (Level 5: the growth inhibition rate is greater than 85%). The “Activity level (growth inhibition rate) Monochoria Vaginalis” value in the assay on Monochoria vaginalis is given as 5 (Level 5: the growth inhibition rate is greater than 85%).
